The IC50 is the concentration that gives 50% inhibition. Higher therefore signals lower potency.

Test [1] relates to SARS-COV-2 Indian variant (δ type) (B.1.617.2).
In test [2] the test system is SARS-COV-2 UK variant (B.1.1.7).
In test [3] the test system is SARS-COV-2 Omicron (sublineage BA.1) variant (B.1.1.529/BA.1).
Test [4] addresses receptor binding domain (RBD) in the SARS-COV-2 Brazilian variant (P.1) (Severe acute respiratory syndrome coronavirus 2, UniProt P0DTC2, E484K/K417T/N501Y).
Test [5] deals with receptor binding domain (RBD) in the SARS-COV-2 Indian variant (κ type (B.1.617.1)) (Severe acute respiratory syndrome coronavirus 2, UniProt P0DTC2, E484Q/L452R).
In test [6] the target is receptor binding domain (RBD) in the SARS-COV-2 South African variant (B.1.351) (Severe acute respiratory syndrome coronavirus 2, UniProt P0DTC2, E484K/K417N/N501Y).
Test [7] has as its target receptor binding domain (RBD) in the SARS-COV-2 UK variant (B.1.1.7) (Severe acute respiratory syndrome coronavirus 2, UniProt P0DTC2, N501Y).
For test [8], the target named is receptor binding domain (RBD) in the SARS-COV-2 Omicron (sublineage BA.1) variant (B.1.1.529/BA.1) (Severe acute respiratory syndrome coronavirus 2, UniProt P0DTC2, E484A/G339D/G446S/G496S/K417N/N440K/N501Y/Q493R/Q498R/S371L/S373P/S375F/S477N/T478K/Y505H).
Test [9] addresses receptor binding domain (RBD) in the SARS-COV-2 Indian variant (δ type (B.1.617.2)) (Severe acute respiratory syndrome coronavirus 2, UniProt P0DTC2, L452R/T478K).
The test system of test [10] is SARS-COV-2 Brazilian variant (P.1).

Ends that are not written are not given here.

On to “DKLWILQKIYEIMVRLDEEGHGEASLMVSDLIYEFMKRD [Ce172]”, for which the IC50 was 0.53 nM in test [1], 0.0022 nM in test [2] and 0.038 nM in [3].
Consider “DKEWILQKIYEIMRRLDEEGHGEASLRVSDLIYEFMKRD [Ce59]”, for which, in [1], inhibition was half-maximal at 16 nM (IC50).
For “DKEWILQKIYEIMRRLDEEGHGEASLRVSDLIYEFMKKD [Ce41]”, the “binding activity to the receptor binding domain (RBD)” value in [4] was “high binding activity”; in test [5] it was “high binding activity”; in [6], “high binding activity”; in test [7], “high binding activity”; in [8], “cannot maintain binding”; in test [9], “high binding activity”. The 50% inhibitory concentration (IC50) in [2] was found to be 0.68 nM. Also, the “dissociation from the RBD once bound” value in test [7] was “does not dissociate at all”.
Turning to “DKEWILYKIYEIMVRLDEEGHGEASLMVSDLIYEFMKRD [Ce149]”, the IC50 in [1] stood at 0.15 nM; in test [2] it was 0.0021 nM; in test [3] it was 1 nM.
Turning to “DKEWILQKIYEIMRRLDEEGHAEASMRVSDLIYEFMKKD [Ce9]”, the values for the 50% inhibitory concentration (IC50) in test [2] and in test [10] were 13 nM and 1200 nM, respectively.

The values are drawn from patent US20240309059A1, “PEPTIDE HAVING ANTI-VIRAL ACTIVITY, ANTI-VIRAL AGENT COMPRISING SAID PEPTIDE, AND METHOD FOR PRODUCING SAID ANTI-VIRAL AGENT” (National University Corporation Tokyo Medical and Dental …, priority 2021, published 2024).
